Measured values: article PMC6832920, “Synthesis, Docking Studies, and In Vitro Evaluation of Some Novel Thienopyridines and Fused Thienopyridine–Quinolines as Antibacterial Agents and DNA Gyrase Inhibitors” (Molecules, 2019)
In brackets after ≈: the same amount, converted by molar mass.

Tests used:
[1] = test system: Staphylococcus aureus 25923; experiment: MIC determination by dilution procedure; assay type: cell-based; conditions: dilutions 125-1.95 μg/mL; for MIC: Staphylococcus aureus, 25923, S. aureus 25923, read-out: minimum inhibitory concentration (MIC)
Description: (§1) A 100 μL measure of NB containing each test microorganism was added to the sterile Petri dishes. Antibacterial testing was carried out on all compounds (3a,b–14) using the agar disc-diffusion method [40]. Sterile nutrients were inoculated with 100 μL cell suspension of the chosen test microorganism and poured into Petri dishes (20 cm diameter). Filter paper discs (Whatman, No.3, diameter 5 mm) were loaded with 10 μL containing 100 μg of the tested compounds, as well as the standard drug. Composite compound disks were placed on the surface of inoculated agar plates and kept at low temperatures before incubation in order to support the swelling and diffusion of the microbial growth. The plates were incubated at 37 °C in the incubator. Experiments were performed in duplicate and the diameters of inhibition zones were measured after 24 h. A diameter of inhibition zone (DIZ) assay was performed to evaluate the antimicrobial potential of the compounds against the tested organisms compared with reference antibiotics.

[2] = test system: Bacillus cereus 33018; experiment: agar disc-diffusion antibacterial assay; assay type: cell-based; conditions: B. cereus 33018, disc loaded with 100 μg, 37 °C, 24 h, read-out: diameter of inhibition zone
Description: as §1

[3] = test system: Staphylococcus aureus 25923; experiment: agar disc-diffusion antibacterial assay; assay type: cell-based; conditions: S. aureus 25923, disc loaded with 100 μg, 37 °C, 24 h, read-out: diameter of inhibition zone
Description: (§2) The clinical control strains of Gram-negative bacteria (Escherichia coli 8739, Salmonella typhimurium 14028, Pseudomonas aeruginosa 27853) and Gram-positive bacteria (Bacillus subtilis 6633, Bacillus cereus 33018, Staphylococcus aureus 25923), were obtained from microbial inoculums by subculturing microorganisms into nutrient broth (NB) at 37 °C for 18 h, and were adjusted to 0.125 A° at 625 nm (equivalent to a McFarland 0.5) in 2-fold NB. A 100 μL measure of NB containing each test microorganism was added to the sterile Petri dishes. Antibacterial testing was carried out on all compounds (3a,b–14) using the agar disc-diffusion method [40]. Sterile nutrients were inoculated with 100 μL cell suspension of the chosen test microorganism and poured into Petri dishes (20 cm diameter). Filter paper discs (Whatman, No.3, diameter 5 mm) were loaded with 10 μL containing 100 μg of the tested compounds, as well as the standard drug. Composite compound disks were placed on the surface of inoculated agar plates and kept at low temperatures before incubation in order to support the swelling and diffusion of the microbial growth. The plates were incubated at 37 °C in the incubator. Experiments were performed in duplicate and the diameters of inhibition zones were measured after 24 h. A diameter of inhibition zone (DIZ) assay was performed to evaluate the antimicrobial potential of the compounds against the tested organisms compared with reference antibiotics.

[4] = test system: Bacillus subtilis 6633; experiment: MIC determination by dilution procedure; assay type: cell-based; conditions: B. subtilis 6633, dilutions 125-1.95 μg/mL, read-out: minimum inhibitory concentration (MIC)
Description: as §1

[5] = test system: Bacillus subtilis 6633; experiment: agar disc-diffusion antibacterial assay; assay type: cell-based; conditions: B. subtilis 6633, disc loaded with 100 μg, 37 °C, 24 h, read-out: diameter of inhibition zone
Description: as §1

[6] = test system: Bacillus cereus 33018; experiment: MIC determination by dilution procedure; assay type: cell-based; conditions: B. cereus 33018, dilutions 125-1.95 μg/mL, read-out: minimum inhibitory concentration (MIC)
Description: as §1

[7] = test system: Pseudomonas aeruginosa 27853; experiment: agar disc-diffusion antibacterial assay; assay type: cell-based; conditions: P. aeruginosa 27853, disc loaded with 100 μg, 37 °C, 24 h, read-out: diameter of inhibition zone
Description: as §2

[8] = test system: Salmonella typhimurium 14028; experiment: MIC determination by dilution procedure; assay type: cell-based; conditions: Salmonella enterica; S. typhimurium 14028; dilutions 125-1.95 μg/mL; read-out: minimum inhibitory concentration (MIC)
Description: (§3) The clinical control strains of Gram-negative bacteria (Escherichia coli 8739, Salmonella typhimurium 14028, Pseudomonas aeruginosa 27853) and Gram-positive bacteria (Bacillus subtilis 6633, Bacillus cereus 33018, Staphylococcus aureus 25923), were obtained from microbial inoculums by subculturing microorganisms into nutrient broth (NB) at 37 °C for 18 h, and were adjusted to 0.125 A° at 625 nm (equivalent to a McFarland 0.5) in 2-fold NB. A 100 μL measure of NB containing each test microorganism was added to the sterile Petri dishes. Antibacterial testing was carried out on all compounds (3a,b–14) using the agar disc-diffusion method [40]. Sterile nutrients were inoculated with 100 μL cell suspension of the chosen test microorganism and poured into Petri dishes (20 cm diameter). Filter paper discs (Whatman, No.3, diameter 5 mm) were loaded with 10 μL containing 100 μg of the tested compounds, as well as the standard drug. Composite compound disks were placed on the surface of inoculated agar plates and kept at low temperatures before incubation in order to support the swelling and diffusion of the microbial growth. The plates were incubated at 37 °C in the incubator. Experiments were performed in duplicate and the diameters of inhibition zones were measured after 24 h.

[9] = test system: Salmonella typhimurium 14028; experiment: agar disc-diffusion antibacterial assay; assay type: cell-based; conditions: Salmonella enterica; S. typhimurium 14028; disc loaded with 100 μg; 37 °C, 24 h; read-out: diameter of inhibition zone
Description: as §3

[10] = test system: Pseudomonas aeruginosa 27853; experiment: MIC determination by dilution procedure; assay type: cell-based; conditions: dilutions 125-1.95 μg/mL; for MIC: Pseudomonas aeruginosa, 27853, P. aeruginosa 27853, read-out: minimum inhibitory concentration (MIC)
[11] = test system: Escherichia coli 8739; experiment: MIC determination by dilution procedure; assay type: cell-based; conditions: E. coli 8739, dilutions 125-1.95 μg/mL, read-out: minimum inhibitory concentration (MIC)
[12] = test system: Escherichia coli 8739; experiment: agar disc-diffusion antibacterial assay; assay type: cell-based; conditions: E. coli 8739, disc loaded with 100 μg, 37 °C, 24 h, read-out: diameter of inhibition zone
Description: as §2

Structure (SMILES)	MIC [1] [µg/mL]	melting point [°C]	zone of inhibition at 100 µg/disc [2] [mm]	zone of inhibition at 100 µg/disc [3] [mm]	MIC [4] [µg/mL]	zone of inhibition at 100 µg/disc [5] [mm]	MIC [6] [µg/mL]	zone of inhibition at 100 µg/disc [7] [mm]	MIC [8] [µg/mL]	zone of inhibition at 100 µg/disc [9] [mm]	MIC [10] [µg/mL]	minimum inhibitory concentration (MIC) ([1]; S. aureus 25923) [µg/mL]	MIC [11] [µg/mL]	minimum inhibitory concentration (MIC) ([10]; P. aeruginosa 27853) [µg/mL]	zone of inhibition at 100 µg/disc [12] [mm]
COc1ccc(-c2cc(-c3ccco3)nc3sc4c(NC(=O)CNN=Cc5ccc(OC)c(OC)c5)c5c(nc4c23)CCCC5)cc1 [Compound 8a, 2-(2-(3,4-Dimethoxybenzylidene)hydrazinyl)-N-(2-(furan-2-yl)-4-(4-methoxyphenyl)-6,7,8,9-tetrahydropyrido[3′,2′:4,5]thieno[3,2-b]quinolin-10-yl)acetamide]	31.2 (≈ 48.2 µM)	187	9	11	31.2 (≈ 48.2 µM)	11	31.2 (≈ 48.2 µM)								
COc1ccc(-c2cc(-c3ccco3)nc3sc4c(NC(=O)Nc5ccccc5)c5c(nc4c23)CCCC5)cc1 [Compound 11, 1-(2-(Furan-2-yl)-4-(4-methoxyphenyl)-6,7,8,9-tetrahydropyrido[3′,2′:4,5]thieno [3,2-b]quinolin-10-yl)-3-phenylurea]	62.5 (≈ 114 µM)	118 to 120	8	8	31.2 (≈ 57.2 µM)	9	62.5 (≈ 114 µM)								
NNCC(=O)Nc1c2c(nc3c1sc1nc(-c4ccco4)cc(-c4cccs4)c13)CCCC2 [Compound 7b, N-(2-(furan-2-yl)-4-(thiophen-2-yl)-6,7,8,9-tetrahydropyrido[3′,2′:4,5]thieno[3,2-b]quinolin-10-yl)-2-hydrazinylacetamide]	31.2 (≈ 65.7 µM)	306	11	10	62.5 (≈ 131 µM)	8	31.2 (≈ 65.7 µM)	12	31.2 (≈ 65.7 µM)	10	31.2 (≈ 65.7 µM)				
N#Cc1c(-c2cccs2)cc(-c2ccco2)nc1SCC(N)=O [Compound 2b, 2-((3-Cyano-6-(furan-2-yl)-4-(thiophen-2-yl)pyridin-2-yl)thio)acetamide]		242													
COc1ccc(-c2cc(-c3ccco3)nc3sc4c(NC(=O)CN5CCOCC5)c5c(nc4c23)CCCC5)cc1 [Compound 9a, N-(2-(furan-2-yl)-4-(4-methoxyphenyl)-6,7,8,9-tetrahydropyrido[3′,2′:4,5]thieno[3,2-b]quinolin-10-yl)-2-morpholinoacetamide]	15.6 (≈ 28.2 µM)	143	16	12	15.6 (≈ 28.2 µM)	14	15.6 (≈ 28.2 µM)	11	15.6 (≈ 28.2 µM)		15.6 (≈ 28.2 µM)	31.25 (≈ 56.3 µM)	15.6 (≈ 28.2 µM)	31.25 (≈ 56.3 µM)	
COc1ccc(-c2cc(-c3ccco3)nc(SCC(N)=O)c2C#N)cc1 [Compound 2a, 2-((3-Cyano-6-(furan-2-yl)-4-(4-methoxyphenyl)pyridin-2-yl)thio)acetamide]		246													
COc1ccc(-c2cc(-c3ccco3)nc3sc4c(N)c5c(nc4c23)CCCC5)cc1 [Compound 5a, 2-(Furan-2-yl)-4-(4-methoxyphenyl)-6,7,8,9-tetrahydropyrido[3′,2′:4,5]thieno[3,2-b]quinolin-10-amine]		231	13		31.2 (≈ 73.1 µM)	10	31.2 (≈ 73.1 µM)	12			31.2 (≈ 73.1 µM)		31.2 (≈ 73.1 µM)		12
CC(=O)CC(=O)Nc1c2c(nc3c1sc1nc(-c4ccco4)cc(-c4cccs4)c13)CCCC2 [Compound 13, N-(2-(furan-2-yl)-4-(thiophen-2-yl)-6,7,8,9-tetrahydropyrido[3′,2′:4,5]thieno[3,2-b]quinolin-10-yl)-3-oxobutanamide]	31.2 (≈ 64.1 µM)	217 to 218	16	12	15.6 (≈ 32.1 µM)	15	15.6 (≈ 32.1 µM)	11	62.5 (≈ 128 µM)	7	31.2 (≈ 64.1 µM)		62.5 (≈ 128 µM)		8
COc1ccc(-c2cc(-c3ccco3)nc3sc4c(N=Cc5ccc(N(C)C)cc5)c5c(nc4c23)CCCC5)cc1 [Compound 12a, 4-(((2-(furan-2-yl)-4-(4-methoxyphenyl)-6,7,8,9-tetrahydropyrido[3′,2′:4,5]thieno[3,2-b]quinolin-10-yl)imino)methyl)-N,N-dimethylaniline]	31.2 (≈ 55.9 µM)	149	11	10	31.2 (≈ 55.9 µM)	13	31.2 (≈ 55.9 µM)	9	62.5 (≈ 112 µM)	8	62.5 (≈ 112 µM)		31.2 (≈ 55.9 µM)		11
NC(=O)c1sc2nc(-c3ccco3)cc(-c3cccs3)c2c1N=C1CCCCC1 [Compound 4b, 3-(Cyclohexylideneamino)-6-(furan-2-yl)-4-(thiophen-2-yl)thieno[2,3-b]pyridine-2-carboxamide]	31.2 (≈ 74.1 µM)	320 to 322		12	31.2 (≈ 74.1 µM)	10			15.6 (≈ 37.1 µM)	15			31.2 (≈ 74.1 µM)		12
COc1ccc(-c2cc(-c3ccco3)nc3sc4c(NS(=O)(=O)c5ccccc5)c5c(nc4c23)CCCC5)cc1 [Compound 10, N-(2-(Furan-2-yl)-4-(4-methoxyphenyl)-6,7,8,9-tetrahydropyrido[3′,2′:4,5]thieno [3,2-b]quinolin-10-yl)benzenesulfonamide]	31.2 (≈ 55 µM)	303 to 304	9	9	62.5 (≈ 110 µM)	8	62.5 (≈ 110 µM)								
COc1ccc(-c2cc(-c3ccco3)nc3sc4c(NC(=O)CNN=Cc5ccc(C)cc5)c5c(nc4c23)CCCC5)cc1 [Compound 8b, N-(2-(furan-2-yl)-4-(4-methoxyphenyl)-6,7,8,9-tetrahydropyrido[3′,2′:4,5]thieno[3,2-b]quinolin-10-yl)-2-(2-(4-methylbenzylidene)hydrazinyl)acetamide]	62.5 (≈ 104 µM)	122	9	8	31.2 (≈ 51.9 µM)	9	62.5 (≈ 104 µM)								
CC1(C)S[C@@H]2[C@H](NC(=O)[C@H](N)c3ccc(O)cc3)C(=O)N2[C@H]1C(=O)O [Amoxicillin, amoxicillin trihydrate, reference compound]	15.6		19	19	15.6	17	15.6	18	15.6	21	15.6		15.6		20
